Laboratory results reported in patent US20180353445A1, “METHODS AND COMPOSITIONS RELATING TO PROTEASOME INHIBITOR RESISTANCE” (Whitehead Institute for Biomedical Research, priority 2017, published 2018).
Residues, ends and D or L forms follow the SMILES beside them. *: point of attachment. Cbz = O=C(OCc1ccccc1)*

What was measured:
Saccharomyces cerevisiae = assay: Yeast MG132 sensitivity assay, proteasome subunit DAmP strains; type: cell-based; settings: five of twelve strains, 50 μM
Procedure: FIG. 7: Reducing the levels of 19S subunits is an evolutionarily conserved mechanism to acquire resistance to proteasome inhibition.
As the 19S regulatory complex components are essential for viability in yeast, we utilized a library of hypomorphic (DAmP) alleles for essential yeast genes. In this library, the expression of individual mRNA. species is reduced from two to ten-fold by replacing the mRNA's 3′ untranslated region (Breslow et al., 2008).
Yeast cells were grown over night in media containing L-proline as nitrogen source instead of ammonium sulfate. The overnight cultures were diluted into OD 0.1 and were grown in the L-proline culture with 0.003% SDS with or without 50 μM MG-132. OD was measured over the period of 48 hours.

cancer cell lines (GDSC) = assay: Genomics of Drug Sensitivity in Cancer (GDSC) data analysis, IC50 of bortezomib and MG132 vs 19S expression / sigma score; type: cell-based, human; settings: GDSC database
Excerpt: In some aspects, whether a cancer cell is considered resistant or sensitive to a particular agent may be determined by comparing the IC50 of the agent for the cancer cell with the IC50 of the agent as measured for each cell line in a panel of diverse cancer cell lines. Cancer cells for which the agent has an IC50 in the 10th percentile of IC50 values determined for the agent on a diverse panel of cancer cell lines may be considered sensitive, while cancer cells for which the agent has an IC50 in the 90th percentile of IC50 values determined for the agent on a diverse panel of cancer cell lines may be considered resistant to the agent.
We asked if this might correlate with changes in 19S subunit expression. We analyzed the Genomics of Drug Sensitivity in Cancer (GDSC) database, a public resource of transcriptional data and drug responsiveness collected from a spectrum of human cancer cell lines with diverse tissue origins and diverse oncogenic lesions (Garnett et al., 2012). […]
Further details of methods used in GDSC dataset analysis: Gene expression and drug sensitivity data was downloaded from the World Wide Web at subdomain cancerrxgene.org. […] For each proteasomal subunit gene, a-score was calculated for each cell line. […] P-values were calculated by t-test, comparing the logEC50s between the 3 sigma and not 3 sigma.

T47D cells = assay: Cell viability, T47D cells with doxycycline-inducible PSMD2 shRNA (KD) vs control; type: cell-based, human; settings: doxycycline-regulated PSMD2 shRNA
Procedure: FIGS. 37A-37E: Subunit suppression results in highly specific drug sensitivity alteration. Schematic representation of the drug screen setup. (FIG. 37A) 147D cells harboring a doxycycline-inducible PSMD2 shRNA were grown in the presence or absence of doxycycline for 48 hr. Cells were then collected, washed, and plated in the absence of doxycycline for 24 hr prior to exposure different compounds. Relative cell numbers were measured 3 days later. […] (FIGS. 37C-37E) The relative viability of the PSMD2 knockdown (KD) versus the control was calculated for replica experiments and the log2 of the ratio is plotted for 349 compounds from the Selleck anti-cancer L3000 drug library that were tested in 4 concentrations (FIG. 37C), the Selleck natural product library (NPC) comprising 502 compounds in 5 doses (FIG. 37D), and the NIH bioactive compound library that includes 731 compounds in 4 doses (FIG. 37E). Specific compounds are annotated.
The effect of transient PSMD2 reduction on growth of T47D cells in the presence of different proteasome inhibitors (bortezomib, MLN9708, carfilzomib, oprozornib) was tested. T47D cells harboring a doxycycline inducible control shRNA (GFP) or a doxycycline-inducible PSMD2 shRNA (TurhoRFP) were incubated with doxycycline for 3 days. Cells were then split and grown in the absence of Dox and proteasome inhibitors were then added at various concentrations. Cells were maintained in culture and then counted.
For the generation of the T47D Tet-inducible PSMD2 knockdown cell line- the TRIPZ vector with an inducible shRNA targeting PSMD2 was purchased from Dhannacon (clone V3THS_403760). It was introduced to the T47D cells according to manufactures protocol and cells were selected with puromycin 1 μg/ml for one week. The cells were exposed to doxycycline for 24 hours and cells were FACS sorted for the top 10% of most RFP expressing cells (highest expression of shRNA). The cells were further cultured in the absence of doxycycline and PSMD2 knockdown was induced as specified in the relevant Examples. The TRIPZ control GFP vector was created by removing the turboRFP from the TRIPZ control vector by digestion with Agel and ClaI and replacing it with GFP amplified with primers flanking with Agel and Clal restriction sites.
Cell Viability Assay—Relative cell growth and survival were measured in 96-well microplate format in the shRNA experiments and in 384 well format in the drug toxicity assays, by using the fluorescent detection of resazurin dye reduction as an endpoint (544 nm excitation and 590 run emission). 2,500 cells in 96 wells format or 1,000 cells in 384 well format were plated 24 hours before compound exposure (for 72 hours or indicated time). Each analysis was performed at least with three replicas.

CC(C)C[C@@H](C=O)NC(=O)[C@H](CC(C)C)NC(=O)[C@H](CC(C)C)NC(=O)OCc1ccccc1 [MG132, N-(benzyloxycathonyl)leucinylieucinylieucinal] (Cbz-Leu-Leu-Leu-aldehyde)
resistance of 19S DAmP yeast strains to proteasome inhibition (Saccharomyces cerevisiae): significantly increased resistance | average IC50 value in 3-Sigma cell lines vs all other lines (cancer cell lines (GDSC)): considerably higher | resistance after transient reduction of PSMD2 (T47D cells): significantly increased resistance
